Laboratory results published in patent US12208146B2, “Reconstituted HDL nanoparticles for delivery of radioactive agents and uses thereof” (UNIVERSITY OF NORTH TEXAS HEALTH SCIENCE CENTER, priority 2018, dated 2025).

System: PC3 cells
Assay: Cell uptake experiments with and without SR-B1 blocking by unlabeled rHDL
Format: cell-based
Conditions: for total uptake: PC-3 cells
Experimental: PC3 cells were harvested and diluted in fresh medium (1×10^5 cells/well, 0.5 mL) and then seeded in 24-well tissue culture plates. After 24 h, the medium was removed, and the cells were incubated with 100 μL/well of phosphate buffered saline (PBS) and the following treatments per well: 2 kBq of ^99mTcO4−, and 30 μL of 1 μg/μL of ^99mTc-rHDL, ^99mTc-Liposome, and ^99mTc-HYNIC-DA for 45 min at 37° C. Then, cells were rinsed two times with 0.5 mL of ice-cold PBS. These two washes were combined and represent the ^99mTcO4^−, ^99mTc-rHDL, ^99mTc-Liposome, and ^99mTc-HYNIC-DA not bounded to cells. Cells were washed with 1 mL of PBS and later were incubated twice with 0.5 mL of Glycine-HCl (50 mM, pH 2.8). The Glycine-HCl washes were combined, these washed recovered the ^99mTcO4^−, ^99mTc-rHDL, ^99mTc-Liposome, and ^99mTc-HYNIC-DA adhered or bounded to cell membrane. Cells were washed with 1 mL of PBS, and finally were washed twice with 0.5 mL of 1.0 M NaOH (lysed cells) to recover the ^99mTcO4^−, ^99mTc-rHDL, ^99mTc-Liposome, and ^99mTc-HYNIC-DA internalized in the cytoplasm (washes were combined). Radioactivity was measured in the initial PBS, Glycine-HCl and NaOH combined washes using a NaI(Tl) detector (NML Inc. USA). The initial activity of each treatment was taken to represent 100% of activity. In parallel, the nonspecific binding was determined using 30 μL of 60 μg/μL of unlabeled rHDL, which blocked SR-B1 receptors on PC3 cells.

## [O]=[99Tc](=[O])(=[O])[O-] [^99m TcO4^−]
With SR-B1 blocking
  total uptake: 2.9%
Without SR-B1 blocking
  total uptake: 2.8%
Control groups, data not shown
  incorporation into cells: only marginal incorporation into cells
